From US20260250250A1, “3-(SULPHONYL OR SULFONIMIDOYL)PROP-2-EN-1-YL]-2-OXO-1,2-DIHYDROPYRIDINE-3-CARBOXAMIDE DERIVATIVES” (Flinder Therapeutics B.V., priority 2022, published 2026)

Assays:
[1] = system: bladder carcinoma RT4 cell line; test: TNF-α-induced cytotoxicity assay (CellTiter-Glo viability); assay type: cell-based; details: Homo sapiens, RT-4, 72 h
Procedure, shortened: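 RT4 bladder carcinoma cells, 1000 per well, stimulated with 1.25 ng/mL TNFα together with compound for 72 h at 37° C., 5% CO2. Viability read by CellTiter-Glo luminescence, proportional to cellular ATP, as a measure of HOIP-dependent cytotoxicity.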

NF-κB signaling pathway = test: Cell-based dual luciferase NF-κB reporter assay (HEK293 cells, TNF stimulated); details: Homo sapiens, HEK293
Procedure, shortened: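 HEK293 cells transfected with Firefly luciferase and NF-κB-response-element NanoLuc plasmids; compounds at 100–0.005 µM in 1% DMSO. Cells stimulated with 2.5 ng/mL TNF 30 min after compound addition. Firefly and NanoLuc activities read after 6 h by Nano-Glo dual-luciferase detection.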

[2] = biological target: T1, human E3 ubiquitin-protein ligase RNF31 (HOIP) (Homo sapiens, UniProt Q96EP0); test: Cell-free HTRF-based HOIP inhibition assay; assay type: biochemical
T1 sequence (Q96EP0 695-1072 limits assumed): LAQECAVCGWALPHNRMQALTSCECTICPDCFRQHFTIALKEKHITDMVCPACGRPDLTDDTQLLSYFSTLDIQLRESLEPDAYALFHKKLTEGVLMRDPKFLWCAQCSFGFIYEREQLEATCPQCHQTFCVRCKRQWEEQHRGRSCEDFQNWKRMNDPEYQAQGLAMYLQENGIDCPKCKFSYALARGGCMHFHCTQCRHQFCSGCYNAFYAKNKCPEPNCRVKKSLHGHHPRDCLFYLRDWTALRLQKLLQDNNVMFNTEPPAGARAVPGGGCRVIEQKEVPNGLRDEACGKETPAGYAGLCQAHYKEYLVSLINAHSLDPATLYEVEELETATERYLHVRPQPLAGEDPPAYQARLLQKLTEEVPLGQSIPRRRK
Procedure, shortened: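 HTRF read (ex 337 nm; em 665 and 620 nm) after a 2.5 h, 25° C. ubiquitination step started by adding E2 plus substrates. Before that, E. coli-expressed human HOIP fragment and E1 were incubated 1 h at 25° C. with compound at 100-0.005 μM, 1% DMSO final.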

Row | SMILES | IC50 (NF-κB signaling pathway) [µM] | IC50 [2] [µM] | IC50 [1] [µM]
1 | COc1ccc(S(=N)(=O)/C=C/CNC(=O)c2cc3c([nH]c2=O)CCCC3)cc1Cl (stereo not drawn) [Example 133, N-[(2E)-3-[(3-chloro-4-methoxyphenyl)(imino)oxo-λ^6-sulfanyl]prop-2-en-1-yl]-2-oxo-1,2,5,6,7,8-hexahydroquinoline-3-carboxamide] | ≤ 1 | ≤ 0.1 | ≤ 1
2 | N=S(=O)(/C=C/CNC(=O)c1cc2c([nH]c1=O)CCCC2)c1cccc(Cl)c1 (stereo not drawn) [Example 134, N-[(2E)-3-[(3-chlorophenyl)(imino)oxo-λ^6-sulfanyl]prop-2-en-1-yl]-2-oxo-1,2,5,6,7,8-hexahydroquinoline-3-carboxamide] | ≤ 1 | ≤ 1 | ≤ 1
3 | N=S(=O)(/C=C/CNC(=O)c1cc2c([nH]c1=O)CCCC2)c1ccc(F)cc1F (stereo not drawn) [Example 135, N-[(2E)-3-[(2,4-difluorophenyl)(imino)oxo-λ^6-sulfanyl]prop-2-en-1-yl]-2-oxo-1,2,5,6,7,8-hexahydroquinoline-3-carboxamide] | ≤ 1 | ≤ 1 | ≤ 10
4 | N#Cc1ccc(S(=N)(=O)/C=C/CNC(=O)c2cc3c([nH]c2=O)CCCC3)cc1 (stereo not drawn) [Example 136, N-[(2E)-3-[(4-cyanophenyl)(imino)oxo-λ^6-sulfanyl]prop-2-en-1-yl]-2-oxo-1,2,5,6,7,8-hexahydroquinoline-3-carboxamide] | ≤ 1 | ≤ 0.1 | ≤ 10
5 | COc1ccc(S(=N)(=O)/C=C/CNC(=O)c2cc3c([nH]c2=O)CCCC3)cc1C (stereo not drawn) [Example 137, N-[(2E)-3-[imino(4-methoxy-3-methylphenyl)oxo-λ^6-sulfanyl]prop-2-en-1-yl]-2-oxo-1,2,5,6,7,8-hexahydroquinoline-3-carboxamide] | ≤ 1 | ≤ 1 | ≤ 1
6 | CC(C)Oc1ccc(S(=N)(=O)/C=C/CNC(=O)c2cc3c([nH]c2=O)CCCC3)cc1 (stereo not drawn) [Example 138, N-[(2E)-3-[imino(oxo)[4-(propan-2-yloxy)phenyl]-λ^6-sulfanyl]prop-2-en-1-yl]-2-oxo-1,2,5,6,7,8-hexahydroquinoline-3-carboxamide] | ≤ 1 | ≤ 1 | ≤ 1
7 | COc1ccc(S(=N)(=O)/C=C/CNC(=O)c2cc3c([nH]c2=O)CCCC3)c(C)c1 (stereo not drawn) [Example 139, N-[(2E)-3-[imino(4-methoxy-2-methylphenyl)oxo-λ^6-sulfanyl]prop-2-en-1-yl]-2-oxo-1,2,5,6,7,8-hexahydroquinoline-3-carboxamide] | ≤ 1 | ≤ 1 | ≤ 1
8 | N=S(=O)(/C=C/CNC(=O)c1cc2c([nH]c1=O)CCCC2)c1ccc(Oc2ccccc2)cc1 (stereo not drawn) [Example 140, N-[(2E)-3-[imino(oxo)(4-phenoxyphenyl)-λ^6-sulfanyl]prop-2-en-1-yl]-2-oxo-1,2,5,6,7,8-hexahydroquinoline-3-carboxamide] | ≤ 1 | ≤ 1 | ≤ 1
9 | COc1ccc(S(=N)(=O)/C=C/CNC(=O)c2cc3c([nH]c2=O)CCC(C)C3)cc1F (stereo not drawn) [Example 142, N-[(2E)-3-[(3-fluoro-4-methoxyphenyl)(imino)oxo-λ^6-sulfanyl]prop-2-en-1-yl]-6-methyl-2-oxo-1,2,5,6,7,8-hexahydroquinoline-3-carboxamide] | ≤ 1 | ≤ 1 | ≤ 1
10 | COc1ccc(S(=N)(=O)/C=C/CNC(=O)c2cc3ccccc3[nH]c2=O)cc1F (stereo not drawn) [Example 143, N-[(2E)-3-[(3-fluoro-4-methoxyphenyl)(imino)oxo-λ^6-sulfanyl]prop-2-en-1-yl]-2-oxo-1,2-dihydroquinoline-3-carboxamide] | ≤ 1 | ≤ 0.1 | ≤ 1
11 | COc1ccc(S(=N)(=O)/C=C/CNC(=O)c2cc3c([nH]c2=O)CCOC3)cc1F (stereo not drawn) [Example 145, N-[(2E)-3-[(3-fluoro-4-methoxyphenyl)(imino)oxo-λ^6-sulfanyl]prop-2-en-1-yl]-2-oxo-1H,2H,5H,7H,8H-pyrano[4,3-b]pyridine-3-carboxamide] | ≤ 100 | ≤ 1 | ≤ 10
12 | N=S(=O)(/C=C/CNC(=O)c1cc2c([nH]c1=O)CCCC2)c1cccc(Oc2ccccc2)c1 (stereo not drawn) [Example 146, N-[(2E)-3-[imino(oxo)(3-phenoxyphenyl)-λ^6-sulfanyl]prop-2-en-1-yl]-2-oxo-1,2,5,6,7,8-hexahydroquinoline-3-carboxamide] | ≤ 1 | ≤ 0.1 | ≤ 1
13 | COc1ccc(S(=N)(=O)/C=C/CNC(=O)c2cc3c([nH]c2=O)CCC(C(F)(F)F)C3)cc1F (stereo not drawn) [Example 147, N-[(2E)-3-[(3-fluoro-4-methoxyphenyl)(imino)oxo-λ^6-sulfanyl]prop-2-en-1-yl]-2-oxo-6-(trifluoromethyl)-1,2,5,6,7,8-hexahydroquinoline-3-carboxamide] | ≤ 10 | ≤ 1 | ≤ 10
14 | COc1ccc(S(=N)(=O)/C=C/CNC(=O)c2cc3c([nH]c2=O)CCC(C(C)(C)C)C3)cc1F (stereo not drawn) [Example 148, 6-tert-butyl-N-[(2E)-3-[(3-fluoro-4-methoxyphenyl)(imino)oxo-A*-sulfanyl]prop-2-en-1-yl]-2-oxo-1,2,5,6,7,8-hexahydroquinoline-3-carboxamide] | ≤ 1 | ≤ 1 | ≤ 1

Continued, in another order:

Row | IC50 (NF-κB signaling pathway) [µM] | IC50 [2] [µM] | SMILES | IC50 [1] [µM]
15 | ≤ 10 | ≤ 1 | COc1ccc(S(=N)(=O)/C=C/CNC(=O)c2cc(-c3ccccc3)c[nH]c2=O)cc1F (stereo not drawn) [Example 149, N-[(2E)-3-[(3-fluoro-4-methoxyphenyl)(imino)oxo-λ^6-sulfanyl]prop-2-en-1-yl]-2-oxo-5-phenyl-1,2-dihydropyridine-3-carboxamide] | ≤ 10
16 | ≤ 10 | ≤ 1 | COc1ccc(S(=N)(=O)/C=C/CNC(=O)c2cc3c([nH]c2=O)CCCCC3)cc1F (stereo not drawn) [Example 150, N-[(2E)-3-[(3-fluoro-4-methoxyphenyl)(imino)oxo-λ^6-sulfanyl]prop-2-en-1-yl]-2-oxo-1H,2H,5H,6H,7H,8H,9H-cyclohepta[b]pyridine-3-carboxamide] | ≤ 1
17 | ≤ 10 | ≤ 1 | COc1ccc(S(=N)(=O)/C=C/CNC(=O)c2cc3c([nH]c2=O)CCC3)cc1F (stereo not drawn) [Example 151, N-[(2E)-3-[(3-fluoro-4-methoxyphenyl)(imino)oxo-λ^6-sulfanyl]prop-2-en-1-yl]-2-oxo-1H,2H,5H,6H,7H-cyclopenta[b]pyridine-3-carboxamide] | ≤ 1
18 | ≤ 10 | ≤ 0.1 | COc1ccc(S(=N)(=O)/C=C/CNC(=O)c2cc3c([nH]c2=O)CCN(C(=O)OC(C)(C)C)C3)cc1F (stereo not drawn) [Example 152, tert-butyl 3-{[(2E)-3-[(3-fluoro-4-methoxyphenyl)(imino)oxo-λ^6-sulfanyl]prop-2-en-1-yl]carbamoyl}-2-oxo-1,2,5,6,7,8-hexahydro-1,6-naphthyridine-6-carboxylate] | ≤ 10
19 | ≤ 1 | ≤ 1 | COc1ccc(S(=N)(=O)/C=C/CNC(=O)c2cc3c([nH]c2=O)CCN(Cc2ccccc2)C3)cc1F (stereo not drawn) [Example 153, 6-benzyl-N-[(2E)-3-[(3-fluoro-4-methoxyphenyl)(imino)oxo-A*-sulfanyl]prop-2-en-1-yl]-2-oxo-1,2,5,6,7,8-hexahydro-1,6-naphthyridine-3-carboxamide] | ≤ 1
20 | ≤ 10 | ≤ 1 | COc1ccc(S(=N)(=O)/C=C/CNC(=O)c2cc3c([nH]c2=O)CCC(OC)C3)cc1F (stereo not drawn) [Example 169, N-[(2E)-3-[(3-fluoro-4-methoxyphenyl)(imino)oxo-λ^6-sulfanyl]prop-2-en-1-yl]-6-methoxy-2-oxo-1,2,5,6,7,8-hexahydroquinoline-3-carboxamide] | ≤ 10
21 | ≤ 10 | ≤ 1 | COc1ccc(S(=N)(=O)/C=C/CNC(=O)c2cc3c([nH]c2=O)CCN(CC(F)(F)F)C3)cc1F (stereo not drawn) [Example 170, N-[(2E)-3-[(3-fluoro-4-methoxyphenyl)(imino)oxo-λ^6-sulfanyl]prop-2-en-1-yl]-2-oxo-6-(2,2,2-trifluoroethyl)-1,2,5,6,7,8-hexahydro-1,6-naphthyridine-3-carboxamide] | ≤ 10
22 | ≤ 10 | ≤ 0.1 | COc1ccc(S(=N)(=O)/C=C/CNC(=O)c2cc3c([nH]c2=O)CCN(C(=O)OCC(F)F)C3)cc1F (stereo not drawn) [Example 178, 2,2-difluoroethyl 3-{[(2E)-3-[(3-fluoro-4-methoxyphenyl)(imino)oxo-λ^6-sulfanyl]prop-2-en-1-yl]carbamoyl}-2-oxo-1,2,5,6,7,8-hexahydro-1,6-naphthyridine-6-carboxylate] | ≤ 10
23 | ≤ 10 | ≤ 1 | N=S(=O)(/C=C/CNC(=O)c1cc2c([nH]c1=O)CCN(C(=O)OCC1CC1)C2)c1ccccc1 (stereo not drawn) [Example 179, cyclopropylmethyl 3-{[(2E)-3-[imino(oxo)phenyl-λ^6-sulfanyl]prop-2-en-1-yl]carbamoyl}-2-oxo-1,2,5,6,7,8-hexahydro-1,6-naphthyridine-6-carboxylate] | ≤ 10
